From patent publication US5932608A, “Melatonin derivative dermocosmetic compositions for whitening/depigmenting the skin” (Societe L'Oreal S.A., priority 1996, dated 1999)

Key:
[1] = test system: fungal tyrosinase; assay: in vitro test of inhibition of tyrosinase (dopachrome formation, 475 nm); type: biochemical; settings: for inhibition of the tyrosinase activity (decrease in the percentage of formation of dopachrome): 25° C., pH 6.5, FIGS. 1 and 2
Description: According to this test, the amount of dopachrome formed during the reaction sequence for the conversion of tyrosine into melanins was monitored by visible spectrometry at 475 nm. These reactions were catalyzed in vitro by fungal tyrosinase, in the presence of a reductive co-substrate (for example L-dopa in small amounts) in order to initiate the hydroxylation reaction of the L-tyrosine into L-dopa, which was then oxidized catalytically into dopaquinone and then into dopachrome.
The concentration of dopachrome formed over time was thus measured in the presence and absence of the inhibitor. The inhibition effect is expressed by lowering the maximum amount of dopachrome formed (optical density value at 475 nm read at the plateau of the curve) relative to the amount obtained in the absence of inhibitor.
A. 0.1M phosphate buffer pH 6.5 (1% Tween 20)
B. Stock solution of 2×10^-3 M L-tyrosine in A
C. Stock solution of 10^-4 M L-dopa in A
D. Stock solution of fungal tyrosinase containing 2400 units/ml in A
E. Stock solution of the inhibitor at 10^-2 M in A
The solutions C and D were prepared on the day of use.
Reference cell: 3 ml of A
Homogenize and equilibrate at 25° C.
Mixed together rapidly and observed the kinetics by measuring the absorbance as a function of time.

[2] = test system: skin pigmentation; settings: exogenous melatonin; D. B. McElhinney et al., J. Invest. Dermatol, 102 (2), 258-9 (1994); cited from earlier work

## COc1cc2c(CCNC(C)=O)c[nH]c2cc1O [6-hydroxymelatonin]
[1]; 0.1 ml of solution E (inhibitor 10^-2 M stock) in 3 ml test cell
  inhibition of the tyrosinase activity (decrease in the percentage of formation of dopachrome): significant inhibition
[1]; 0.2 ml of solution E (inhibitor 10^-2 M stock) in 3 ml test cell
  inhibition of the tyrosinase activity (decrease in the percentage of formation of dopachrome): significant inhibition

## COc1ccc2[nH]cc(CCNC(C)=O)c2c1 [melatonin, N-acetyl-5-methoxytryptamine]
[1]; similar tests, amount of inhibitor not stated
  inhibition of the tyrosinase activity: absence of inhibition
[2]
  effect on skin pigmentation in man: no effect
